Data from paper PMC6556873, “Rapid Covalent-Probe Discovery by Electrophile-Fragment Screening” (Journal of the American Chemical Society, 2019).
Like-named read-outs stand apart in the source and are kept apart here.

Legend:
BSA = molecular target: T1, BSA (Bos taurus, UniProt P02769); parameters: Intact protein LC/MS covalent labelling, fragments in pools of five, 200 uM each, 4 °C; conditions: 24 h, 4 °C, pool of five; 200 µM; covalent
T1 construct: gene ALB

NNMT (hNNMT) = molecular target: T2, NNMT (hNNMT) (Homo sapiens, UniProt P40261); parameters: Intact protein LC/MS covalent labelling, fragments in pools of five, 200 uM each, 4 °C; conditions: 24 h, 4 °C, pool of five; 200 µM; covalent
T2 construct: wild type, N-terminal His6 tag kept (no cleavage described), E. coli, construct 31248 Da
T2 sequence (P40261 1-264): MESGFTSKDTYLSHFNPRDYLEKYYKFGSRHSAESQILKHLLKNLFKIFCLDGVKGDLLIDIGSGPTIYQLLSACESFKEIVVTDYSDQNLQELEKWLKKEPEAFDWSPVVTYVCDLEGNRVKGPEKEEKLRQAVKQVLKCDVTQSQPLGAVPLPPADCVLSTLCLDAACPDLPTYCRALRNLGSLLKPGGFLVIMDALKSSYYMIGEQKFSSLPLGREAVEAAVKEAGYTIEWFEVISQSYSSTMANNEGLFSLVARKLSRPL

NUDT7 = molecular target: T3, NUDT7 (Homo sapiens, UniProt P0C024); parameters: Intact protein LC/MS covalent labelling, fragments in pools of five, 200 uM each, 4 °C; conditions: 24 h, 4 °C, pool of five; 200 µM; covalent
T3 construct: residues 14-235, E. coli, pNIC28-Bsa4, N-terminal His6 tag removed by TEV, construct 26672 Da
T3 sequence (P0C024 14-235): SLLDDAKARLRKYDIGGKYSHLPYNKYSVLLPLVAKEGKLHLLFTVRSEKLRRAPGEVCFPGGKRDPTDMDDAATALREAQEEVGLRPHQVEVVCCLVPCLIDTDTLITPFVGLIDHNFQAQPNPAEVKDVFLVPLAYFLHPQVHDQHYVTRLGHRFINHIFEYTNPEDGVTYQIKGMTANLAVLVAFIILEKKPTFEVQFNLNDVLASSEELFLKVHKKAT

OTUB2 (OTUB2A) = molecular target: T4, OTUB2 (OTUB2A) (Homo sapiens, UniProt Q96DC9); parameters: Intact protein LC/MS covalent labelling, fragments in pools of five, 200 uM each, 4 °C; conditions: 24 h, 4 °C, pool of five; 200 µM; covalent
T4 construct: full length residues 1-234, E. coli BL21(DE3)-R3, His tag removed by TEV, construct 27312 Da
T4 sequence (Q96DC9 1-234): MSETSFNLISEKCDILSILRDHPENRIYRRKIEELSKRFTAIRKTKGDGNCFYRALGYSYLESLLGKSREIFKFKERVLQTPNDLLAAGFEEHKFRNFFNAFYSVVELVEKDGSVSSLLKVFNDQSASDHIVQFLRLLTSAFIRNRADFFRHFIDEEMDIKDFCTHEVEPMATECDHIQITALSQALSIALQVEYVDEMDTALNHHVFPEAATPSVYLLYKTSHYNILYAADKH

PCAF = molecular target: T5, PCAF (Homo sapiens, UniProt Q92831); parameters: Intact protein LC/MS covalent labelling, fragments in pools of five, 200 uM each, 4 °C; conditions: 24 h, 4 °C, pool of five; 200 µM; covalent
T5 construct: gene KAT2B
T5 sequence (Q92831 whole entry, the tested form may be a part): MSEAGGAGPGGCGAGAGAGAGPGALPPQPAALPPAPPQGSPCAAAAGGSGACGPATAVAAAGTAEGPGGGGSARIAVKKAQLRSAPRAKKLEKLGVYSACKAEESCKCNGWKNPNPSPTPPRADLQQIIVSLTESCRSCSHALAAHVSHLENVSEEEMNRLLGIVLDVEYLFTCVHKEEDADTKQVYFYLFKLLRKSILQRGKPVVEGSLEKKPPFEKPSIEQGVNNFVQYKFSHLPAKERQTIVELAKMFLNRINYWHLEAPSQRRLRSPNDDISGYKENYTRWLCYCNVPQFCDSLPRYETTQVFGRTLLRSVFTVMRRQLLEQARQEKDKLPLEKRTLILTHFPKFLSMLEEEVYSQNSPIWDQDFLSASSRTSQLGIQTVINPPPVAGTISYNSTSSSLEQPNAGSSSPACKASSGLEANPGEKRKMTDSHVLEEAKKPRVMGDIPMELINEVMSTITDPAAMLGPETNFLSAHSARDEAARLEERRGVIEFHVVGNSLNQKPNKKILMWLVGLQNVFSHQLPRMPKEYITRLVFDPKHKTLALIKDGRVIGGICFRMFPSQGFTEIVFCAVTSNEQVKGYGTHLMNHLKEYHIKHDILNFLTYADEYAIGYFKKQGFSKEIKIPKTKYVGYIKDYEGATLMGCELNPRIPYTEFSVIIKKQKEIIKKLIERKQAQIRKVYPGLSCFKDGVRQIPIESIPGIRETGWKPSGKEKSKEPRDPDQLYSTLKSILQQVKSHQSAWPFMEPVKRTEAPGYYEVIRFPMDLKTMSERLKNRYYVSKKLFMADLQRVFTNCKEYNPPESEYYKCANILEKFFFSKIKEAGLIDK

in vitro [1] = assay: in vitro; parameters: species or system CCD841, HEK293; conditions: human, hb2 cells, read-out: HB-2 Cells Viability (%)
in vitro [2] = assay: in vitro; parameters: species or system HB2, HEK293; conditions: human, ccd841 cells
in vitro [3] = assay: in vitro; parameters: species or system HB2, CCD841; conditions: human, hek293 cells

T1 sequence (P02769 whole entry, the tested form may be a part): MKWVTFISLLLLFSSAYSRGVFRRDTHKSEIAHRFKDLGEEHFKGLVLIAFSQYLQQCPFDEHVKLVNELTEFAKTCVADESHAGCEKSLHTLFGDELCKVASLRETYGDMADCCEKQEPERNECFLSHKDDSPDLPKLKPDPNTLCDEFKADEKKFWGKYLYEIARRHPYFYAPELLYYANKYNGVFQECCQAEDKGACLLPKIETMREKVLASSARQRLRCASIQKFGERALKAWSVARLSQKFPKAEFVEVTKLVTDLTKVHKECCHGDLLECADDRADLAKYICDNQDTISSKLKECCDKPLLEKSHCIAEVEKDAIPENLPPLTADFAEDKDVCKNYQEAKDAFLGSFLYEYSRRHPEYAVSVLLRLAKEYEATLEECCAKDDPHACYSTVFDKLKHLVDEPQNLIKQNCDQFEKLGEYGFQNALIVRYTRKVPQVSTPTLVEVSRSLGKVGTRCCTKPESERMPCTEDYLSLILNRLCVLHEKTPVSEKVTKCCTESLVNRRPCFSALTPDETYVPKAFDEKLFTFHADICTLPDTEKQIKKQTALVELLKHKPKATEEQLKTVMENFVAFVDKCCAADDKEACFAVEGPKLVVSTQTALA

| Compound | BSA (BSA) | NNMT (NNMT (hNNMT)) | NUDT7 (NUDT7) | OTUB2 (OTUB2 (OTUB2A)) | PCAF (PCAF) | viability at 48 h, 10 µM (in vitro [1]) [%] | viability at 48 h, 10 µM (in vitro [2]) [%] | viability at 48 h, 10 µM (in vitro [3]) [%] |
| --- | --- | --- | --- | --- | --- | --- | --- | --- |
| C=CC(=O)N1CCC(n2ccc(C(F)(F)F)n2)CC1 [PCM-0102435] | 0 | 0 | 0 | 0 | 0 | 96.3 | 93.3 | 85.7 |
| C=CC(=O)N1CCCC(Cc2nnc3ccccn23)C1 (stereo not drawn) [PCM-0102909] | 0 | 0 | 0 | 0 | 0 | 101 | 87.9 | 108 |
| C=CC(=O)N1CCCCC1C(=O)O (stereo not drawn) [PCM-0102507] | 0 | 0 | 0 | 0 | 0 | 101 | 109 | 95.6 |
| CCc1cccc(C)c1NC(=O)CCl [PCM-0102618] | 0 | 0 | 0.11 | 0 | 0 | 98.3 | 106 | 101 |
| CN(C)C(=O)CN1CCN(C(=O)CCl)CC1.Cl [PCM-0102304] | 0 | 0 | 0 | 0 | 0 | 107 | 114 | 128 |
| C=CC(=O)Nc1nc(C)cc(C)n1 [PCM-0102547] | 0 | 0 | 0.34 | 0 | 0 | 98.2 | 100 | 133 |
| C=CC(=O)N1CCC(CS(C)(=O)=O)CC1 [PCM-0102651] | 0 | 0 | 0 | 0 | 0 | 105 | 108 | 100 |
| C=CC(=O)N1CC2(CCCC2)c2cc3c(cc2C1C)OCCO3 (stereo not drawn) [PCM-0102560] | 0 | 0.19 | 0 | 0 | 0 | 102 | 110 | 116 |
| C=CC(=O)N1CCC(NC(=O)OC(C)(C)C)CC1 [PCM-0102617] | 0 | 0.16 | 0 | 0 | 0 | 104 | 105 | 94.2 |
| COC(=O)c1cc(NC(=O)CCl)cn1C [PCM-0102545] | 0 | 0.16 | 0 | 0.33 | 0 | 54.5 | 65.4 | 12.7 |
| CC(=O)N1CCC(NC(=O)CCl)CC1 [PCM-0102932] | 0 | 0 | 0 | 0.07 | 0 | 95.1 | 85.9 | 88 |
| O=C(CCl)Nc1cccc(C(=O)N2CCSCC2)c1 [PCM-0103072] | 0 | 0 | 0 | 0 | 0 | 34.5 | 55.2 | 7.8 |
| C=CC(=O)NCC1=CS(=O)(=O)c2ccccc21 [PCM-0102563] | 0 | 0.07 | 0 | 0.04 | 0 | 102 | 110 | 82.9 |
| C=CC(=O)N1Cc2ccc(S(=O)(=O)N(C)C)cc2C1 [PCM-0102718] | 0.3 | 0 | 0 | 0 | 0 | 97.4 | 99.7 | 73.6 |
| O=C(CCl)Nc1cc([N+](=O)[O-])ccc1Cl [PCM-0102366] | 0 | 0.51 | 0.2 | 0.27 | 0 | 1.3 | 4.3 | 2.6 |
| CC1CCCC(C)N1C(=O)CCl (stereo not drawn) [PCM-0102616] | 0 | 0.2 | 0 | 0 | 0 | 71 | 88.1 | 57.9 |
| O=C(CCl)NC(=O)c1cccc([N+](=O)[O-])c1 [PCM-0102460] | 0 | 0.12 | 0 | 0 | 0 | 99.8 | 95.9 | 117 |

Further lines, with some results ahead:

| BSA (BSA) | NNMT (NNMT (hNNMT)) | NUDT7 (NUDT7) | OTUB2 (OTUB2 (OTUB2A)) | PCAF (PCAF) | Compound | viability at 48 h, 10 µM (in vitro [1]) [%] | viability at 48 h, 10 µM (in vitro [2]) [%] | viability at 48 h, 10 µM (in vitro [3]) [%] |
| --- | --- | --- | --- | --- | --- | --- | --- | --- |
| 0 | 0 | 0 | 0.13 | 0 | Cc1ccc(S(=O)(=O)NC(=O)CCl)cc1 [PCM-0102850] | 101 | 114 | 81.4 |
| 0 | 0 | 0 | 0.14 | 0 | CN(C)C(=O)CN(C)C(=O)CCl [PCM-0102632] | 102 | 114 | 89.7 |
| 0 | 0 | 0.15 | 0.07 | 0 | Cc1ccc([N+](=O)[O-])c(NC(=O)CCl)c1C [PCM-0102511] | 91.5 | 75.4 | 56.3 |
| 0 | 0.13 | 0.13 | 0 | 0 | Cc1ccccc1CN(C)C(=O)CCl [PCM-0102707] | 7.9 | 57 | 11.6 |
| 0.21 | 0 | 0 | 0.55 | 0 | Cc1ccsc1CNC(=O)CCl [PCM-0103075] | 96.1 | 76.7 | 83.8 |
| 0 | 0 | 0.13 | 0.42 | 0 | CC(NC(=O)CCl)c1ccccc1 (stereo not drawn) [PCM-0102128] | 84.4 | 85.5 | 84.3 |
| 0 | 0 | 0 | 0.44 | 0 | O=C(CCl)NC1CCOc2ccccc21 (stereo not drawn) [PCM-0102871] | 92.9 | 87.1 | 69.5 |
| 0 | 0.17 | 0 | 0.1 | 0 | Cc1ccc(S(N)(=O)=O)cc1NC(=O)CCl [PCM-0102744] | 54.4 | 61.4 | 19.7 |
| 0 | 0.65 | 0.33 | 0.17 | 0 | O=C(CCl)N1Cc2ccccc2C(c2ccccc2)C1 (stereo not drawn) [PCM-0102432] | 38.2 | 12.4 | 20.6 |
| 0 | 0 | 0 | 0 | 0 | CN(CC1CC1)C(=O)CCl [PCM-0102714] | 97 | 84.8 | 88.3 |
